# Assay results from patent publication US20080206311A1, “Sucrase Activity Inhibitor, Glucoamylase Activity Inhibitor and Food and Feed Containing the Same” (MITSUI SUGAR CO., LTD., priority 2005, published 2008).
# Key:
# [1] = biological target: (Homo sapiens, UniProt P14410); conditions: 4.3-56 mM sucrose as substrate, 14 mM palatinose as inhibitor; cited from earlier work
# glucoamylase = test: Glucoamylase activity inhibition with rat small-intestinal enzyme liquid, substrate soluble starch; type: biochemical; conditions: 5% soluble starch + 5% test sample
# Protocol: (§1) Two grams of rat small-intestinal acetone powder (ex Sigma Corporation) were dissolved in 20 ml of 0.1 M phosphate buffer (pH 6.8), left standing one day at 5° C., and subsequently subjected to centrifugal separation (8000 rpm×15 min.). The supernatant was filtered through a 0.8 μm membrane filter to obtain a small-intestinal enzyme liquid. This liquid contained a mixture of enzymes present in small intestine, such as sucrose, glucoamylase, maltase, and isomaltase.
# (§2) Each 0.25 ml of the small-intestinal enzyme liquid was added to each 5 ml of Solutions 1 through 5 and placed in a water bath at 37° C. to allow them to react for 60 min. while shaken at 60 strokes/min. After the reaction, they were heated in a boiling water bath for 3 min. for inactivation of the enzymes.
# (§3) The glucose concentration in each solution after the reaction was measured using the F-kit Glucose (ex Roche). A liberated glucose concentration (g/l) was calculated by subtracting the blank value (0.1 M phosphate buffer alone) and the concentration of glucose originally contained in the test sample from each glucose concentration measured.
# Next, each of the liberated glucose concentration was input in the following equation to obtain decomposition inhibition ratio for maltase and sucrose. In the present tests, the substrates and the inhibitors were decomposed by enzymes present in the small-intestinal enzyme liquid. However, the enzymes decomposing the substrates are different from the enzymes decomposing the inhibitors. The decomposition inhibition ratio was determined as a measure for the inhibitory effect. When the inhibitor was added, the glucose concentration was lower than that seen when the substrate alone was reacted. A higher decomposition inhibition ratio means a stronger inhibitory effect.
# Decomposition inhibition ratio,%={(A+B)−(AB)}+(A+B)×100 [Equation 1]
# wherein (A+B) indicates a sum of a liberated glucose concentration in the control solution containing the test sample alone after the reaction (A) and a liberated glucose concentration in the control solution containing the substrate alone after the reaction (B); and (AB) indicates a liberated glucose concentration in the test solution containing the test sample (A) and the substrate (B), after the reaction.
# The procedures in Example 1 were repeated with the exception that palatinose and palatinit were used as a test sample and soluble starch was used as a substrate. The test samples and the substrate were dissolved in 0.1 M phosphate buffer (pH 6.8) to attain the concentration shown in Table 6 to thereby prepare two test solutions. Besides, each of the test samples or the substrate was dissolved in 0.1 M phosphate buffer (pH 6.8) to attain the concentration shown in Table 6 to thereby prepare control solutions. Each 5 ml of the aforementioned test solutions and the control solutions was subjected to the enzymatic reaction according to the same procedures as in Example 1 and the liberated glucose concentration and the decomposition inhibition ratio were measured.
# The procedures in Example 1 were repeated with the exception that trehalulose was used as a test sample and soluble starch was used as a substrate. The test sample and the substrate were dissolved in 0.1 M phosphate buffer (pH 6.8) to attain the concentration shown in Table 9 to thereby prepare a test solution. Besides, the test sample or the substrate was dissolved in 0.1 M phosphate buffer (pH 6.8) to attain the concentration shown in Table 9 to thereby prepare control solutions. Each 5 ml of the aforementioned test solution and the control solutions was subjected to the enzymatic reaction according to the same procedures as in Example 1 and the liberated glucose concentration and the decomposition inhibition ratio were measured.
# The procedures in Example 1 were repeated with the exception that trehalose was used as a test sample and soluble starch was used as a substrate. […]
# maltase [2] = conditions: maltose as substrate; Non-Patent Publication 4; cited from earlier work
# maltase [3] = test: Maltase activity inhibition with rat small-intestinal enzyme liquid, substrate maltose; type: biochemical; conditions: 5% maltose + 5% test sample
# Protocol: (§4) Palatinose (trade name: Palatinose IC, ex Shin Mitsui Sugar Co., Ltd.) (test sample) was used as a sample for investigating each enzyme activity inhibitory effect. Maltose and sucrose were used as substrates for maltase and sucrose, respectively. The test sample and the substrates were dissolved in 0.1 M phosphate buffer (pH 6.8) at the concentration shown in Table 1 below to prepare test solutions (Solutions 4 and 5). Also, the test sample or the substrates were dissolved in 0.1 M phosphate buffer (pH 6.8), respectively to at the concentration shown in Table 1 below to prepare control solutions (Solution 1 for the test sample and Solutions 2 and 3 for the substrates).
# as §1, with “isomaltase. […]” for “isomaltase.”
# as §3
# Next, each of the liberated glucose concentration was input in the following equation to obtain decomposition inhibition ratio for maltase and sucrose. […] The decomposition inhibition ratio was determined as a measure for the inhibitory effect. […]
# Each 5 ml of the aforementioned test solutions and control solutions was subjected to the enzymatic reaction in the same procedures as in Example 1. The liberated glucose concentration, the decomposition inhibition ratio for maltase and the decomposition inhibition ratio for sucrose were calculated for each solution after the reaction.
# [4] = test system: small-intestinal enzyme liquid; test: Decomposition of a saccharide alone (control solution) by small-intestinal enzyme liquid; type: biochemical, rat; conditions: 5% saccharide alone
# Protocol: as §4, §1, §2, §3
# The fructose concentration was measured using the F-kit Fructose (ex Roche). The liberated fructose concentration, g/l, was obtained by subtracting the blank value (0.1 M phosphate buffer alone) from the resultant fructose concentration.
# The procedures in Example 1 were repeated with the exception that palatinit, palatinose or isomaltose was used as a test sample and lactose was used as a substrate. The test samples and the substrate were dissolved in 0.1 M phosphate buffer (pH 6.8) to attain the concentration shown in Table 5 to thereby prepare three test solutions. Besides, each of the test samples or the substrate was dissolved in 0.1 M phosphate buffer (pH 6.8) to attain the concentration shown in Table 5 to thereby prepare control solutions. Each 5 ml of the aforementioned test solutions and the control solutions was subjected to the enzymatic reaction according to the same procedures as in Example 1. The glucose concentration, the fructose concentration and the galactose concentration were measured. The galactose concentration was measured using F-kit Galactose (ex Roche). The liberated galactose concentration, g/l, was calculated by subtracting the blank value (0.1 M phosphate buffer alone) from the measured galactose concentration.
# (Homo sapiens, UniProt P14410), sequence (P14410 whole entry): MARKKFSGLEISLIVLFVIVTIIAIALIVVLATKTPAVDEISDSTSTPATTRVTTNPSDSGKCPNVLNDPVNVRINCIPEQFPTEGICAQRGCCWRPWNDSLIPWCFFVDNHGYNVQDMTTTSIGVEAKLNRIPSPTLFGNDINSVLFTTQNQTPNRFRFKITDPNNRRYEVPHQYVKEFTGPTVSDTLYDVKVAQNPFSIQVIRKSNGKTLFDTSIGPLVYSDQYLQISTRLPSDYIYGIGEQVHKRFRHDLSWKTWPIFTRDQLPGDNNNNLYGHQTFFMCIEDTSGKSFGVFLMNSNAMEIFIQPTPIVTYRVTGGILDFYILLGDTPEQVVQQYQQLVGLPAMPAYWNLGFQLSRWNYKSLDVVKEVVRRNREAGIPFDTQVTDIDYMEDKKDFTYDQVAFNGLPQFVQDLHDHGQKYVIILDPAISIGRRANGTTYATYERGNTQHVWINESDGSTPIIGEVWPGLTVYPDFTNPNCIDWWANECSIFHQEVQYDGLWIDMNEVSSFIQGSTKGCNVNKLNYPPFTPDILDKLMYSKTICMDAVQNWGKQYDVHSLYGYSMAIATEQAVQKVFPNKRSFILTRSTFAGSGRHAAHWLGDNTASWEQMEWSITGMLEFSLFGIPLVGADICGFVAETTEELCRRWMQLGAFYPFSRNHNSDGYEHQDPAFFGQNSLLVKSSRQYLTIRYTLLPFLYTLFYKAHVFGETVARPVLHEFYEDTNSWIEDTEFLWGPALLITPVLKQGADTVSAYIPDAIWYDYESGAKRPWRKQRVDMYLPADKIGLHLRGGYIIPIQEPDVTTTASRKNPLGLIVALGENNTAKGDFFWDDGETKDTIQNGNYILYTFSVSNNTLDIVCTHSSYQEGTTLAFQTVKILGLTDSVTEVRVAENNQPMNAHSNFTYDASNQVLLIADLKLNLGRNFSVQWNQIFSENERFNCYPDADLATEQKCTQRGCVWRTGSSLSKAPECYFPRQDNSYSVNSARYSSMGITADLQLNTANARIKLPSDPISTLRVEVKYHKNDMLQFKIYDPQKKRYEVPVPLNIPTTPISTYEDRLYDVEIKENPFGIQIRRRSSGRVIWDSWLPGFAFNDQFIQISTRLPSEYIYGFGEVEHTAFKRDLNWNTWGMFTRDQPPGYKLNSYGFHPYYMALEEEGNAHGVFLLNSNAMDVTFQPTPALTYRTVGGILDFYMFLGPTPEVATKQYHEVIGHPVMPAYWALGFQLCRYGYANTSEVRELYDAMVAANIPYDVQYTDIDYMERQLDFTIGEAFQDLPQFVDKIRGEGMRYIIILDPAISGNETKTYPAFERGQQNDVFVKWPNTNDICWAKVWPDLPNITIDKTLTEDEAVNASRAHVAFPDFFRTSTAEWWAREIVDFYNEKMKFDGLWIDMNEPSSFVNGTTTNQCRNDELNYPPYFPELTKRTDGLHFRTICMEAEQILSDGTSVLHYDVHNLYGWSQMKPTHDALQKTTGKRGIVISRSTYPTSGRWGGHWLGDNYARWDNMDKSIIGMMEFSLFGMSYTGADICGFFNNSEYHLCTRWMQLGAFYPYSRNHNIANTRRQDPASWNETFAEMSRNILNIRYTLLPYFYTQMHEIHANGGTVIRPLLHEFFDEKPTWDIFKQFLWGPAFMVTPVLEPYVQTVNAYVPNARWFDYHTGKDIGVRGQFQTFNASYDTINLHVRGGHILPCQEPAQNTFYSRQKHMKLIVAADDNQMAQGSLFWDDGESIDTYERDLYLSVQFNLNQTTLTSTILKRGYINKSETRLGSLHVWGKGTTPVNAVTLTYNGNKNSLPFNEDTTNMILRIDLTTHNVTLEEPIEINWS
smiles,measurement,setting,value
"OC[C@H]1O[C@H](OC[C@H]2OC(O)(CO)[C@@H](O)[C@@H]2O)[C@H](O)[C@@H](O)[C@@H]1O (stereo partly shown) [palatinose, isomaltulose]",Inhibitory effect on the sucrase activity (reported),[1],no inhibitory effect
same,Glucoamylase activity inhibitory effect (in words),glucoamylase,have the glucoamylase activity inhibitory effect
same,"Decomposition inhibition ratio, %, against glucoamylase",glucoamylase; Example 4,26%
same,Liberated glucose concentration,glucoamylase; Example 4,3.611 g/L
same,Maltase activity inhibitory effect (reported),maltase [2],have a maltase activity inhibitory effect
same,Maltase activity inhibitory effect (in words),maltase [3],has a maltase activity inhibitory effect
same,Liberated glucose concentration,"maltase [3]; 37° C., 60 min",4.757 ± 0.342 g/L
same,"Decomposition inhibition ratio, %, against maltase",maltase [3]; Equation 1,6%
same,Liberated glucose concentration,"[4]; 37° C., 60 min, pH 6.8, Example 1 / Test Example 1",0.095 ± 0.010 g/L
same,Liberated fructose concentration,"[4]; Example 3 / Test Examples 2, 3",0.21 g/L
same,Liberated glucose concentration,"[4]; Example 3 / Test Examples 2, 3",0.11 g/L
same,Liberated glucose concentration,[4]; Example 4,0.205 g/L
same,Liberated galactose concentration,[4]; Test Example 3,0.00 g/L
